Reference: US20090036422A1 (priority 2007, published 2009)
Structures can show the parent of a compound that is named as a salt.

Biological target: T1, human orexin-2 (hOX2) receptor (Homo sapiens, UniProt O43614)
T1 construct: expressed in transfected cells
T1 sequence (O43614 1-444): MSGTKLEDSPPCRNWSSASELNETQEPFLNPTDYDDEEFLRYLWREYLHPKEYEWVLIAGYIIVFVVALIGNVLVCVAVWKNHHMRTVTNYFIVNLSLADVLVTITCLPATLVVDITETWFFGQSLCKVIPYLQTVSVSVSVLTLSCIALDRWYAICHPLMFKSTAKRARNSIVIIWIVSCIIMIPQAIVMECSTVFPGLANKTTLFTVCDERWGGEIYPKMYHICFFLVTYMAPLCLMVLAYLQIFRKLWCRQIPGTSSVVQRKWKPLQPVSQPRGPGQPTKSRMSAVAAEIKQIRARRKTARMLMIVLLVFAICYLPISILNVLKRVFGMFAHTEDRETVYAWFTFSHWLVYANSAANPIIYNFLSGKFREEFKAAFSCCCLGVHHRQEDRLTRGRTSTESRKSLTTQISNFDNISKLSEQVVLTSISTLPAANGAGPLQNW
Experiment: Intracellular Ca2+ mobilization assay (FLIPR), CHO(dHFr-) cells expressing hOX2, orexin-A at EC80 as agonist
Type: cell-based
Settings: Kb=IC50/(1+[A]/EC50); CHO(dHFr-)-OX2R cells, antagonist applied 25 min before orexin-A EC80
Description: Intracellular Ca^2+ Mobilization Assay
The Chinese Hamster Ovary (dHFr−) mutant cell line stably expressing human orexin-1 (hOX1) or human orexin-2 (hOX2) receptors were maintained in Dulbecco's Modified Eagle Medium (1×) with GlutaMax™ 1, 4500 mg/L D-Glucose and Sodium Pyruvate (Catalog No. 31966-021, Invitrogen, Carlsbad, Calif.), 5% dialyzed fetal calf serum (Catalog No. 26400-044), 100 μg/ml penicillin and 100 μg/ml streptomycin. The cells were seeded at 5×10^4 cells/well in the poly-D-lysine treated, 96-well, black/clear-bottomed plates (Catalog No. BD356640, BD Biosciences, Palo Alto, Calif.). 24 h later, the cells were loaded for 1 h at 37° C. with 4 μM Flou-4 acetoxymethyl ester (Catalog No. F-14202, Molecular Probes, Eugene, Oreg.) in FLIPR buffer (1×HBSS, 20 mM HEPES, 2.5 mM Probenecid). Hanks' Balanced Salt Solution (HBSS) (10×) (catalog No. 14065-049) and HEPES (1M) (catalog No. 15630-056) were purchased from Invitrogen, Carlsbad, Calif. Probenecid (250 mM) (catalog No. P8761) was from Sigma, Buchs, Switzerland. The cells were washed five times with FLIPR buffer to remove excess dye and intracellular calcium mobilization, [Ca^2+]i were measured using a Fluorometric Imaging Plate Reader (FLIPR-96, Molecular Devices, Menlo Park, Calif.) as described previously (Malherbe et al., Mol. Pharmacol., 64, 823-832, 2003). Orexin A (catalog No. 1455, Toris Cookson Ltd, Bristol, UK) was used as agonist. Orexin A (50 mM stock solution in DMSO) was diluted in FLIPR buffer +0.1% BSA. The EC50 and EC80 values of orexin-A were measured daily from standard agonist concentration-response curves in CHO(dHFr−) —OX1R and —OX2R cell lines. All compounds were dissolved in 100% DMSO. Inhibition curves were determined by addition of 11 concentrations (0.0001-10 μM) of inhibitory compounds and using EC80 value of orexin-A as agonist (a concentration which gave 80% of max agonist response, determined daily). The antagonists were applied 25 min (incubation at 37° C.) before the application of the agonist. Responses were measured as peak increase in fluorescence minus basal, normalized to the maximal stimulatory effect induced by EC80 value of orexin-A or orexin-B. Inhibition curves were fitted according to the Hill equation: y=100/(1+(x/IC50)^nH), where nH=slope factor using Excel-fit 4 software (Microsoft).
Kb values were calculated according to the following equation Kb=IC50/(1+[A]/EC50) where A is the concentration of agonist added which is very close to agonist EC80 value, and IC50 and EC50 values were derived from the antagonist inhibition and orexin-A or B agonist curves, respectively.

SMILES | Kb
Cc1ccc(N(CCc2ccc(C(F)(F)F)cc2)C(=O)C(N)c2ccccc2)cc1C (centres unmarked) [Example 84, 2-Amino-N-(3,4-dimethyl-phenyl)-2-phenyl-N-[2-(4-trifluoromethyl-phenyl)-ethyl]-acetamide] | 0.0666 µM
Cc1ccc(N(CCc2ccc(F)c(F)c2)C(=O)C(N)c2ccsc2)cc1C (centres unmarked) [Example 216, 2-Amino-N-[2-(3,4-difluoro-phenyl)-ethyl]-N-(3,4-dimethyl-phenyl)-2-thiophen-3-yl-acetamide hydrochloride] | 0.0302 µM
Cc1ccc(N(CCc2cc(F)cc(C(F)(F)F)c2)C(=O)[C@@H](N)c2ccccc2)cc1C [Example 201, (S)-2-Amino-N-(3,4-dimethyl-phenyl)-N-[2-(3-fluoro-5-trifluoromethyl-phenyl)-ethyl]-2-phenyl-acetamide hydrochloride] | 0.247 µM
Cc1ccc(N(CCc2cccc(C(F)(F)F)c2)C(=O)[C@@H](N)c2ccccc2)cc1C [Example 184, (S)-2-Amino-N-(3,4-dimethyl-phenyl)-2-phenyl-N-[2-(3-trifluoromethyl-phenyl)-ethyl]-acetamide hydrochloride] | 0.0249 µM
COc1ccc(Cl)c(N(CCc2ccc(C(F)(F)F)cc2)C(=O)C(N)c2ccccc2)c1 (centres unmarked) [Example 110, 2-Amino-N-(2-chloro-5-methoxy-phenyl)-2-phenyl-N-[2-(4-trifluoromethyl-phenyl)-ethyl]-acetamide] | 0.0335 µM
Cc1ccc(CCN(C(=O)C(NCCO)c2ccccc2)c2ccc(C)c(C)c2)cc1 (centres unmarked) [Example 106, N-(3,4-Dimethyl-phenyl)-2-(2-hydroxy-ethylamino)-2-phenyl-N-(2-p-tolyl-ethyl)-acetamide] | 0.0071 µM
COc1ccc(N(CCc2ccc(C(F)(F)F)cc2)C(=O)[C@@H](O)c2ccccc2)cc1OC [Example 23, (2S)-N-(3,4-dimethoxyphenyl)-2-hydroxy-2-phenyl-N-{2-[4-(trifluoromethyl)phenyl]ethyl}acetamide] | 0.0226 µM
Cc1ccc(N(CCc2ccc(Cl)cc2Cl)C(=O)[C@@H](N)c2ccccc2)cc1C [Example 205, (S)-2-Amino-N-[2-(2,4-dichloro-phenyl)-ethyl]-N-(3,4-dimethyl-phenyl)-2-phenyl-acetamide hydrochloride] | 0.0829 µM
COc1cccc(N(CCc2ccc(C(F)(F)F)cc2)C(=O)[C@@H](N)c2ccccc2)c1 [Example 151, (S)-2-Amino-N-(3-methoxy-phenyl)-2-phenyl-N-[2-(4-trifluoromethyl-phenyl)-ethyl]-acetamide] | 0.0112 µM
COc1ccc(N(CCc2ccc(C(F)(F)F)cc2)C(=O)C(N)c2ccccc2OC)cc1OC (centres unmarked) [Example 35, 2-Amino-N-(3,4-dimethoxy-phenyl)-2-(2-methoxy-phenyl)-N-[2-(4-trifluoromethyl-phenyl)-ethyl]-acetamide] | 0.0088 µM
Cc1cccc(CCN(C(=O)[C@@H](N)c2ccccc2)c2ccc(C)c(C)c2)c1 [Example 181, (S)-2-Amino-N-(3,4-dimethyl-phenyl)-2-phenyl-N-(2-m-tolyl-ethyl)-acetamide hydrochloride] | 0.0708 µM
CNC(C(=O)N(CCc1ccc(C(F)(F)F)cc1)c1ccc(OC)c(OC)c1)c1ccccc1OC (centres unmarked) [Example 34, N-(3,4-Dimethoxy-phenyl)-2-(2-methoxy-phenyl)-2-methylamino-N-[2-(4-trifluoromethyl-phenyl)-ethyl]-acetamide] | 0.027 µM
Cc1cc(N(CCc2ccc(C(F)(F)F)cc2)C(=O)C(N)c2ccccc2)ccc1F (centres unmarked) [Example 83, 2-Amino-N-(4-fluoro-3-methyl-phenyl)-2-phenyl-N-[2-(4-trifluoromethyl-phenyl)-ethyl]-acetamide] | 0.0698 µM
COc1ccccc1C(N)C(=O)N(CCc1ccc(C(F)(F)F)cc1)c1ccc2c(c1)OC(F)(F)C(F)(F)O2 (centres unmarked) [Example 44, 2-Amino-2-(2-methoxy-phenyl)-N-(2,2,3,3-tetrafluoro-2,3-dihydro-benzo[1,4]dioxin-6-yl)-N-[2-(4-trifluoromethyl-phenyl)-ethyl]-acetamide] | 0.0069 µM
Cc1ccc(CCN(C(=O)[C@@H](NC(=O)[C@@H](N)c2ccccc2)c2ccccc2)c2ccc(C)c(C)c2)cc1 [Example 249, (S)-2-((S)-2-Amino-2-phenyl-acetylamino)-N-(3,4-dimethyl-phenyl)-2-phenyl-N-(2-p-tolyl-ethyl)-acetamide] | 0.082 µM
CCOc1ccc(N(CCc2ccc(C(F)(F)F)cc2)C(=O)C(N)c2ccccc2)cc1OCC (centres unmarked) [Example 68, 2-Amino-N-(3,4-diethoxy-phenyl)-2-phenyl-N-[2-(4-trifluoromethyl-phenyl)-ethyl]-acetamide] | 0.0117 µM
NC(C(=O)N(CCc1ccc(C(F)(F)F)cc1)c1cccc(OC(F)F)c1)c1ccccc1 (centres unmarked) [Example 107, 2-Amino-N-(3-difluoromethoxy-phenyl)-2-phenyl-N-[2-(4-trifluoromethyl-phenyl)-ethyl]-acetamide] | 0.0509 µM
Cc1ccc(N(CCc2ccc(C(F)(F)F)cc2)C(=O)[C@@H](O)c2ccccc2)cc1C [Example 159, (S)—N-(3,4-Dimethyl-phenyl)-2-hydroxy-2-phenyl-N-[2-(4-trifluoromethyl-phenyl)-ethyl]-acetamide] | 0.0542 µM
Cc1ccc(N(CCc2cc(F)cc(Cl)c2)C(=O)[C@@H](N)c2ccccc2)cc1C [Example 209, (S)-2-Amino-N-[2-(3-chloro-5-fluoro-phenyl)-ethyl]-N-(3,4-dimethyl-phenyl)-2-phenyl-acetamide hydrochloride] | 0.0486 µM
N[C@H](C(=O)N(CCc1ccc(C(F)(F)F)cc1)c1ccc(OC(F)F)c(Cl)c1)c1ccc(F)cc1 [Example 163, (S)-2-Amino-N-(3-chloro-4-difluoromethoxy-phenyl)-2-(4-fluoro-phenyl)-N-[2-(4-trifluoromethyl-phenyl)-ethyl]-acetamide] | 0.0778 µM
Cc1ccc(CCN(C(=O)C(NC[C@@H]2CCCO2)c2ccccc2)c2ccc(C)c(C)c2)cc1 (stereo partly drawn) [Example 134, N-(3,4-Dimethyl-phenyl)-2-phenyl-2-{[(S)-1-(tetrahydro-furan-2-yl)methyl]-amino}-N-(2-p-tolyl-ethyl)-acetamide] | 0.0161 µM
CNC(C(=O)N(CCc1ccc(C(F)(F)F)cc1)c1ccc(OC)c(OC)c1)c1ccccc1 (centres unmarked) [Example 53, N-(3,4-Dimethoxy-phenyl)-2-methylamino-2-phenyl-N-[2-(4-trifluoromethyl-phenyl)-ethyl]-acetamide] | 0.0305 µM
COc1ccc(N(CCc2ccc(C(F)(F)F)cc2)C(=O)C(N)c2cccc(F)c2)cc1OC (centres unmarked) [Example 85, 2-Amino-N-(3,4-dimethoxy-phenyl)-2-(3-fluoro-phenyl)-N-[2-(4-trifluoromethyl-phenyl)-ethyl]-acetamide] | 0.0074 µM
Cc1ccc(N(CCc2ccccc2F)C(=O)[C@@H](N)c2ccccc2)cc1C [Example 180, (S)-2-Amino-N-(3,4-dimethyl-phenyl)-N-[2-(2-fluoro-phenyl)-ethyl]-2-phenyl-acetamide hydrochloride] | 0.036 µM
Cc1ccc(N(CCc2ccc(F)cc2)C(=O)[C@@H](N)c2ccccc2)cc1C [Example 175, (S)-2-Amino-N-(3,4-dimethyl-phenyl)-N-[2-(4-fluoro-phenyl)-ethyl]-2-phenyl-acetamide] | 0.0219 µM
COc1ccc(N(CCc2ccc(C(F)(F)F)cc2)C(=O)C(N)c2cccc(Cl)c2)cc1OC (centres unmarked) [Example 63, 2-Amino-2-(3-chloro-phenyl)-N-(3,4-dimethoxy-phenyl)-N-[2-(4-trifluoromethyl-phenyl)-ethyl]-acetamide] | 0.0664 µM
